The text below walks through data of patent EP0877022A1, “Synthesis of the sulfonylpyrimidine derivatives with anticancer activity” (Herbos d.d., priority 1997, dated 1998).

Molecules are shown by their SMILES. Where two headings read alike, the source gives them in different places.

Holding throughout (type): cell-based
In test [1] the test system is human cervix carcinoma (HeLa). Description: Growth inhibitory effects on HeLa cells (MTT staining). Conditions: concentration 10^-5 M, read-out: inhibition of cell growth. How it is done: (§1) Cell lines. Human tumor pancreatic carcinoma cells (MiaPaCa 2), laryngeal carcinoma (Hep 2), human cervical carcinoma (HeLa) and normal human fibroblasts (Hef 2) were grown as monolayers at 37 °C in a humidified atmosphere with 5% CO2 in DMEM supplemented with 10% fetal calf serum, 2 mM glutamine, 100 U/ml penicillin and […] streptomycin.
(§2) Cell Cytotoxicity. To the purpos of the experiments the cells ([…]; 2x10^4 cells/ml) were plated onto 96-microwell plates. After 24 hours, test compounds at different concentrations (10^-4-10^-8 M), were added to the cells. Three days later, cell viability was determined by […]. The control cells were grown under same conditions without addition of test compounds. […] This method depends on the conversion of a water-soluble tetrazolium salt (MTT) to a purple colored formazan precipitate. The reaction affected by dehydrogenase enzymes active only in living cells. Tests were carried out in 96-well microculture plates. 10^4 viable tumor cells per well at 4 h incubation time 20 µg MTT7100 µl total medium volume. Formazan crystals were dissolved in DMSO and the plates were immediately measured on a microculture plate reader at 540 nm.

The subject of test [2] is laryngeal carcinoma (Hep 2). Kind of test: Growth inhibitory effects on Hep 2 cells (MTT staining). The settings on record: Homo sapiens, concentration 10^-5 M, read-out: inhibition of cell growth. How it is done:
as §1, §2

Test [3] deals with human tumor pancreatic carcinoma (MiaPaCa 2). Description: Growth inhibitory effects on MiaPaCa 2 cells (MTT staining). Conditions: MIA PaCa-2, concentration 10^-5 M, read-out: inhibition of cell growth. The method, then:
as §1, §2

Test [4] concerns normal human fibroblasts (Hef 2). Kind of test: Growth inhibitory effects on normal Hef 2 fibroblasts (MTT staining). The settings on record: Fibroblast, Hef 2 normal cells, concentration 10^-5 M, read-out: inhibition of cell growth. The method, then: as §1, §2

For orientation: inhibition means how much of the control response was suppressed. Consider `Cc1ccc(S(=O)(=O)n2cc(Br)c(=O)[nH]c2=O)cc1` [compound 2], for which the inhibition at 10 µM was 85% in test [1], 20% in test [2] (Hep 2) and 80% in test [3].

In the case of `Cc1ccc(S(=O)(=O)n2ccc(N)nc2=O)cc1` [compound 4], the inhibition at 10 µM came to 85% in test [1]; 20% in test [2] (HEp-2, Hep 2); 65% in test [3]; 20% in test [4].
